The results in this text go back to ChEMBL document CHEMBL6103545, “Discovery of GS-2278, a Potent and Selective LPAR1 Antagonist for the Treatment of Idiopathic Pulmonary Fibrosis” (J Med Chem, 2025).

Broadly, the EC50 is the concentration that produces a half-maximal response. What is called fraction unbound is the share of the substance not bound to proteins or other matrix. The term pKa denotes the pH at which an ionisable group is half protonated. As a reminder, the Papp A→B is the apparent permeability from the apical to the basolateral side of a cell layer. What is called logD is lipophilicity at a set pH, counting ionised and neutral species. As a reminder, the half-life is the time needed for the level to fall by half in the phase considered. In general, AUC(0-t) refers to the area under the concentration-time curve up to a stated or last time point. For orientation: Vd means a proportionality between amount in the body and measured concentration, not a real space. As usually defined, the bioavailability is dose-corrected exposure relative to a reference, in per cent.

The target in data set [1] is T1, Lysophosphatidic acid receptor 1 (Homo sapiens, UniProt Q92633). In words: […] at LPA1 receptor in human TWNT-4 cells pre-incubated for 1 hr followed by 30 mins incubation in presence of 4% human serum albumin by MRTF-A assay. Format: functional, cell-based.
In data set [2] the target is T1, Lysophosphatidic acid receptor 1. In words: […] at LPA1 receptor in human TWNT-4 cells assessed as nuclear translocation pre-incubated for 1 hr followed by 30 min incubation by MRTF-A assay. It is filed as functional, cell-based.
Data set [3] has the same target. Nature of the data set: Antagonist activity at LPA1 receptor in serum starved human TWNT-4 cells assessed as nuclear translocation pre-incubated for 1 hr followed by LPA stimulation and measured after 30 min by MRTF-A assay. Format: cell-based.
Data set [4] is described as follows: Plasma protein binding in human assessed as unbound fraction incubated for 24 hrs by equilibrium dialysis based Rapidfire-QToF mass spectrometric analysis. It is filed as ADME, cell-free. Background: In equilibrium dialysis only unbound substance equilibrates across the membrane.
The nature of data set [5]: Dissociation constant, pKa of compound at 100 uM by capillary electrophoresis. It is filed as physicochemical.
The nature of data set [6]: Drug excretion in bile-duct cannulated rat urine at 1 mg/kg, iv. Format: ADME, organism-based. As to conditions: read-out: Drug excretion.
Data set [7] is described as follows: Apparent permeability across apical to basolateral side in cMDR1 knockout MDCK-II cells incubated upto 240 mins by RF-QToF analysis. Format: ADME, cell-based, Canis lupus familiaris. Particulars: dog.
A short description of data set [8]: Lipophilicity, logD of compound at pH 7.4. Format: physicochemical. Particulars: buffer.
Data set [9] can be described thus: Half-life in Beagle dog at 5 mg/kg, po measured after 24 hrs by LC/MS/MS analysis. Format: ADME, organism-based, Canis lupus familiaris. Particulars: in vivo.
The nature of data set [10]: Half-life in male Sprague-Dawley rat at 1 mg/kg, iv measured after 24 hrs by LC/MS/MS analysis. Particulars: in vivo. Format: ADME, organism-based.
The nature of data set [11]: Metabolic stability in cynomolgus monkey liver microsomes assessed as intrinsic clearance at 1 uM by LC/MS/MS analysis. It is filed as ADME, Macaca fascicularis, Microsome. Particulars: read-out: CLH (converted). Background: Microsomes from liver hold many membrane-bound enzymes, among them those of drug oxidation.
The nature of data set [12]: AUC (0 to 24 hrs) in Beagle dog at 5 mg/kg, po measured after 24 hrs by LC/MS/MS analysis. Format: ADME, organism-based, Canis lupus familiaris. Particulars: in vivo.
Data set [13] is described as follows: Volume of distribution in Beagle dog at 1 mg/kg, iv measured after 24 hrs by LC/MS/MS analysis. It is filed as ADME, organism-based, Canis lupus familiaris. Particulars: in vivo.
Data set [14] can be described thus: Metabolic stability in Beagle dog liver microsomes assessed as intrinsic clearance at 1 uM by LC/MS/MS analysis. Format: ADME, Canis lupus familiaris, Microsome. As to conditions: read-out: CLH (converted).
Data set [15] in a line: Half-life in cynomolgus monkey at 5 mg/kg, po measured after 24 hrs by LC/MS/MS analysis. Particulars: in vivo. It is filed as ADME, organism-based, Macaca fascicularis.
Data set [16] is described as follows: Volume of distribution in male Sprague-Dawley rat at 1 mg/kg, iv s measured after 24 hrs by LC/MS/MS analysis. As to conditions: in vivo. Format: ADME, organism-based.
A short description of data set [17]: Oral bioavailability in cynomolgus monkey at 5 mg/kg measured after 24 hrs by LC/MS/MS analysis. It is filed as ADME, organism-based, Macaca fascicularis. As to conditions: in vivo.
Data set [18] can be described thus: Metabolic stability in male Sprague-Dawley rat liver microsomes assessed as intrinsic clearance at 1 uM by LC/MS/MS analysis. As to conditions: read-out: CLH (converted). It is filed as ADME, Microsome.
Data set [19] can be described thus: Volume of distribution in cynomolgus monkey at 1 mg/kg, iv measured after 24 hrs by LC/MS/MS analysis. Format: ADME, organism-based, Macaca fascicularis. As to conditions: in vivo.
Data set [20] can be described thus: AUC (0 to 24 hrs) in cynomolgus monkey at 5 mg/kg, po measured after 24 hrs by LC/MS/MS analysis. It is filed as ADME, organism-based, Macaca fascicularis. As to conditions: in vivo.
The nature of data set [21]: AUC (0 to 24 hrs) in male Sprague-Dawley rat at 5 mg/kg, po measured after 24 hrs by LC/MS/MS analysis. Format: ADME, organism-based. Particulars: in vivo.
A short description of data set [22]: Oral bioavailability in Beagle dog at 5 mg/kg measured after 24 hrs by LC/MS/MS analysis. It is filed as ADME, organism-based, Canis lupus familiaris. As to conditions: in vivo.
A short description of data set [23]: Oral bioavailability in male Sprague-Dawley rat at 5 mg/kg measured after 24 hrs by LC/MS/MS analysis. Format: ADME, organism-based. As to conditions: in vivo.

Structures are written as SMILES.

T1 sequence (Q92633 whole entry): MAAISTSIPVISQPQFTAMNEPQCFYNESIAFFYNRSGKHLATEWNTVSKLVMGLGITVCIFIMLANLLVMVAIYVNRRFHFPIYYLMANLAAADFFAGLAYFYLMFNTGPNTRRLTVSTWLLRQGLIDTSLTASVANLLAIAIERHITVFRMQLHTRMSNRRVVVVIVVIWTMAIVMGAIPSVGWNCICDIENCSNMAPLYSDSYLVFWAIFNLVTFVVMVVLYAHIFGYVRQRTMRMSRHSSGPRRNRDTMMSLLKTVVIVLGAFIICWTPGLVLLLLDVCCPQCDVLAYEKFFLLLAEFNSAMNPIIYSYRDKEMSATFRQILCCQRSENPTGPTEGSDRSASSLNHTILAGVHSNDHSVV

Take `CCCCCCCC/C=C\CCCCCCCC(=O)OC[C@@H](O)COP(=O)(O)O` [LYSOPHOSPHATIDIC ACID]: the EC50 is 306 nM in data set [1] and 47.3 nM in data set [2].

As to `Cc1nc(-c2nnn(C)c2NC(=O)O[C@H](C)c2cccnc2Cl)ccc1NS(C)(=O)=O`, the EC50 in data set [3] amounted to 109 nM. Moreover, in [4], the fraction unbound at 24 h was 0.17. Also, the pKa at 100 µM in data set [5] was found to be 7.1. In data set [6], the dose excreted was found to be 50%. Also, the Papp A→B at 4 h in data set [7] is 5.9 ×10⁻⁶ cm/s. The compound further registered a logD in [8] of 1.5.

As to `C[C@@H](OC(=O)Nc1c(-c2ccc(NS(C)(=O)=O)cn2)nnn1C)c1cc(F)cnc1F`, the half-life in data set [9] is 3.6 h; in data set [10], 3 h; in data set [15], 3.8 h. Further, the CLint scaled at 1 µM is 7.17 mL/min/kg in data set [11], 8.67 mL/min/kg in data set [14] and 18.5 mL/min/kg in data set [18]. The EC50 in data set [3] amounted to 35 nM. In addition, the figures for the AUC(0-t) at 24 h in [12], in data set [20] and in data set [21] were 25 µM·h, 13 µM·h and 5.4 µM·h, respectively. Moreover, the unbound share (fraction unbound) at 24 h in data set [4] is 0.31. In addition, the Vd in [13] came to 1 L/kg; in data set [16] it was 1 L/kg; in [19], 0.4 L/kg. The bioavailability in data set [17] was 45%; in [22], 100%; in data set [23], 55%. For the same compound, in data set [7], the Papp A→B at 4 h came out at 3.2 ×10⁻⁶ cm/s. In [8], this compound showed a logD of 1.5.
